We go through two molecules from US20130116298A1, “ANTITUMOR AGENT OR POSTOPERATIVE ADJUVANT CHEMOTHERAPEUTIC AGENT FOR HEPATOCELLULAR CARCINOMA TREATMENT” (TAIHO PHARMACEUTICAL CO., LTD., priority 2009, published 2013).

The conditions of series [1]: unresectable hepatocellular carcinoma patients; cited from earlier work.
Series [2] relates to various human cancer cell lines. The conditions noted are these: oral administration alone; lung cancer, large bowel cancer, uterus cancer and the like; cited from earlier work.
Series [3] has as its system hepatocellular carcinoma. The series can be described thus: Comparative clinical study of TSU-68 therapy in hepatocellular carcinoma patients treated with TACE. It is filed as in vivo. The conditions noted are these: for Median of progression-free survival: 200 mg orally twice daily, started within 2 weeks after TACE. As for the experimental part: A comparative clinical study was conducted for the TSU-68 administration group and the TSU-68 non-administration group consisting of cases that were impossible to treat with hepatectomy and PAT and had been treated with TACE and excluding cases evaluated as Child-Pugh grade C in terms of hepatic functional reserve. The antitumor agent used for TACE was epirubicin.
The subject cases were randomly assigned to the TSU-68 administration group and the TSU-68 non-administration group. TSU-68 administration was initiated for cases assigned to the TSU-68 administration group within 2 weeks after TACE. TSU-68 was administered orally at a dose of 200 mg per administration twice daily after breakfast and dinner on consecutive days. No further treatment was given to the TSU-68 non-administration group after TACE and thus only follow-up observation was carried out.
Progression-free survival was defined as survival within the period from the day of TACE designated as the initial date of reckoning to any of dates on which the following events was observed, whichever came first.
1. Date on which the presence of progressive disease (hereinafter referred to as “PD”) was confirmed as a result of assessment of best overall response (date of testing). 2. Date on which a test subject died for any reason (date of death). 3. Date on which a test subject was assessed to have experienced clinically obvious deterioration of the disease or to be in need of post-TACE treatment even without confirmation of PD upon assessment of best overall response (date of assessment).
Best overall response was evaluated by measuring tumor diameters by CT and assaying tumor markers (AFP, PIVKA-II, and AFP-L3 fractions) according to New Guideline to Evaluate the Response to Treatment in Solid Tumor (hereinafter referred to as “RECIST”) (J Natl Cancer Inst 92: 205, 2000).

Where [4] appears, read: TACE-treated hepatocellular carcinoma patients of Child-Pugh grade A.

With `CNC(=O)c1cc(Oc2ccc(NC(=O)Nc3ccc(Cl)c(C(F)(F)F)c3)cc2)ccn1` [sorafenib], in series [1], the “Increase of AST level in patients” value is reported as 45% and the “Increase of bilirubin level (corresponding to score 3 or more) in patients” value is 32%.
For `Cc1[nH]c(/C=C2\C(=O)Nc3ccccc32)c(C)c1CCC(=O)O` [TSU-68, (Z)-5-[(1,2-dihydro-2-oxo-3H-indol-3-ylidene)methyl]2,4-dimethyl-1H-pyrrol-3-propanoic acid], the “Antitumor effect (tumor growth)” value in series [2] is “effective for inhibiting tumor growth”. Also, the “Progression-free survival compared with the TSU-68 non-administration group” value in series [3] (TACE-treated hepatocellular carcinoma patients) and in series [3] (setting [4]) was “significantly extended” throughout. The results for the “Median of progression-free survival” value in series [3] (setting [4]) and in series [3] (post-TACE hepatocellular carcinoma patients) were 5.8 month and 5.2 month, respectively. The “Severity of each adverse reaction” value in series [3] (major adverse reactions: abdominal pain, ascites, edema, general fatigue, fever, feeling of sickness) is listed as “grade 1 or 2”.
